Read-outs that look alike come from different tables or passages of the source.
Assays:
PfDHODH = molecular target: T1, PfDHODH (Plasmodium falciparum, UniProt Q08210); assay: PfDHODH inhibition assay (DCIP end-point, 384-well); type: biochemical
T1 construct: encoding amino acid residues 158 to 569 fused to a His6-SUMO tag in its N-terminus; His6-SUMO (N, cleaved yes); made in house; host or cells: E. coli BL21 Star (DE3), pETSUMO/PfDHODH
Protocol: The screening of 40,400 compounds was conducted in 384-well plates by adapting the end-point assay reported before. First, 1 µL of 200 µM compound was transferred into 384-well plates using a Benchtop Multi-Pipetter EDR-384SR (Biotech Co., Ltd., Tokyo, Japan). […] Next, 38 µL of assay mix (100 mM HEPES-NaOH pH 7.5, 5% (v/v) glycerol, 150 mM NaCl, 0.05% (v/v) Triton X-100, 15 µM decylubiquinone (dUQ, Sigma), 120 µM 2,6-dichlorophenolindophenol (DCIP, Sigma), and 20 nM PfDHODH) were dispensed into all wells and mixed at 600 rpm for 1 min by a MixMate®® (Eppendorf). The reaction was started by the addition of 5 µL of 1.8 mM L-DHO (Sigma) as the substrate and mixed as described above for 20 s. The absorbance at 600 nm was recorded using a SpectraMax®® Paradigm®® Multi-Mode Microplate Reader (Molecular Devices) before (t0) and after 20 min (t20) incubation at room temperature. The readings at t0 were subtracted from t20, and PfDHODH inhibition was calculated as the inhibition relative to the negative and positive controls in a single-point assay. Hits were defined as compounds inhibiting more than 50% of PfDHODH activity at 4.5 µM. The quality of the screening system was evaluated by calculating statistical parameters: Z′-factor, S/N, S/B, SW, and CV, as previously reported. The IC50 values of the hit compounds were determined using the same assay system containing serial dilutions of each compound in triplicates (22.7, 6.8, 2.27, 0.68, 0.227, 0.068, 0.023, 0.007, 0.002, 0.0007 µM) using GraphPad Prism 8.0 software (GraphPad Software Inc., San Diego, CA, USA).

HsDHODH = molecular target: T2, HsDHODH (Homo sapiens, UniProt Q02127); assay: HsDHODH counter-assay; type: biochemical; settings: purified recombinant HsDHODH, tested at 4.5 µM; read-out: IC50 DHODH Hs
T2 construct: made in house
T2 sequence (Q02127 whole entry): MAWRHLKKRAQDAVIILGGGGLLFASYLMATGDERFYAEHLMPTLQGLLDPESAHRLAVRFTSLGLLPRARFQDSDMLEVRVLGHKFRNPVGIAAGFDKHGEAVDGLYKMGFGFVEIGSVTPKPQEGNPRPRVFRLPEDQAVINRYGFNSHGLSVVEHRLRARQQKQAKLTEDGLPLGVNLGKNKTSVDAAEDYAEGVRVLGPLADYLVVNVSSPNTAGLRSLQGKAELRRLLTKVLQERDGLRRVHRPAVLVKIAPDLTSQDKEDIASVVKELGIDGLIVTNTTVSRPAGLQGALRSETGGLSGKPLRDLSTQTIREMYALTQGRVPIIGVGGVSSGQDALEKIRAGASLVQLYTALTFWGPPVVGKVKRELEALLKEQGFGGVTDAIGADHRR
Protocol: Selected hit compounds from PfDHODH screening were tested for potential inhibition against HsDHODH at 4.5 µM. The HsDHODH used in this study was purified as previously reported. The HsDHODH assay was performed similarly to that for PfDHODH, but in an assay mix consisting of 50 mM Tris-HCl pH 8.0, 0.1% (v/v) Triton X-100, 2 mM potassium cyanide (KCN, Wako), 60 µM dUQ, and 120 µM DCIP, with the reaction started by the addition of 200 µM L-DHO (final concentration) in triplicate. For this assay, DMSO was used as a negative control and 10 µM of lapachol was used as a positive control (100% inhibition). The relative inhibition was calculated as described above.

[1] = molecular target: mammalian mitochondrial complexes I–III (Bos taurus, UniProt P00157+P03887+P17694+P42026); assay: NADH-cytochrome c reductase (complexes I–III) activity assay; type: biochemical; settings: bovine heart mitochondria, range tested 0.0007 to 22.7 µM; read-out: IC50 Mammalian Mitochondrial CI–III
Protocol: Bovine heart mitochondria were prepared as previously described. The NADH-cytochrome c reductase (complexes I–III) and succinate-cytochrome c reductase (complexes II–III) activities were assayed in 384-well plates following an established protocol with small modifications. Complex I–III activity was assayed in a reaction mix containing 50 mM phosphate buffer pH 7.4, 2 mM KCN, 200 µM cytochrome c (cytochrome c from horse heart, Nacalai tesque), and 15 µg/mL mitochondria. Plates containing 1 µL serial dilutions of PfDHODH inhibitors were prepared and mixed with 38 µL of the reaction mix, as described above. The reaction was started by the addition of 5 µL of 2.6 mM NADH, and the assay was performed as described for PfDHODH, but at 550 nm and with 15 min of incubation. Complex II–III activity was assayed similarly to complex I–III activity but with 100 µM cytochrome c and 25 µg/mL mitochondria, and the reaction was started by 10 mM succinate. For both assays, DMSO and 5 µM ascochlorin were used as negative and positive controls, respectively. Assays were performed in triplicate.

[2] = Cytotoxicity assay, HDF (Cell Counting Kit-8); type: cell-based; settings: human dermal fibroblast (HDF) cells, normal human dermal fibroblasts
Protocol: (§1) Human dermal fibroblast cells (HDF, Zenbio, Inc., Durham, NC, USA) were cultured in Dulbecco’s Modified Eagle Medium/Nutrient Mixture F-12 medium (DMEM/F12, Gibco), human pancreatic carcinoma cells (PANC-1, DS Pharma Biomedical, Co., Ltd.) were cultured in DMEM (Gibco), and human colorectal adenocarcinoma cells (DLD-1, Taiho Pharmaceutical Company) were cultured in RPMI-1640 medium (FUJIFILM Wako Pure Chemicals). The culture mediums were supplemented with 10% (v/v) heat-inactivated fetal bovine serum (Gibco) and the cells were maintained at 37 °C under 5% CO2.
(§2) HDF, PANC-1, and DLD-1 were seeded at 2.5 × 10^4 cells/well on a 96-well plate and incubated at 37 °C under 5% CO2 overnight. The cells were then washed with PBS and the medium was replaced with 99 µL of fresh media. Then, 1 µL of the compounds or DMSO was added to the respective wells. As controls, wells containing 1% (v/v) DMSO in column 1 and wells containing only the culture medium in column 12 were used as the negative and positive controls, respectively. After 48 h of incubation, the cells were washed with PBS, and 99 µL of fresh media was replaced, followed by the addition of 10 µL of Cell Counting Kit-8 (Dojindo) to each well. After 3 h of incubation, the absorbance was measured at 450 nm using a SpectraMax®® Paradigm®® Multi-Mode microplate Reader. The calculation of cell viability in the test well was based on the absorbance of control wells according to the manufacturer’s protocol. The mean of quadruplet values was used to calculate the CC50 using GraphPad Prism 8.0 software.

[3] = Cytotoxicity assay, PANC-1 (Cell Counting Kit-8); type: cell-based; settings: PANC-1 human pancreatic carcinoma cells
Protocol: as §1, §2

[4] = recombinant tag-free PfDHODH, 20 min, serial dilutions 0.0007-22.7 µM, read-out: IC50 DHODH Pf

T1 sequence (Q08210 158-569): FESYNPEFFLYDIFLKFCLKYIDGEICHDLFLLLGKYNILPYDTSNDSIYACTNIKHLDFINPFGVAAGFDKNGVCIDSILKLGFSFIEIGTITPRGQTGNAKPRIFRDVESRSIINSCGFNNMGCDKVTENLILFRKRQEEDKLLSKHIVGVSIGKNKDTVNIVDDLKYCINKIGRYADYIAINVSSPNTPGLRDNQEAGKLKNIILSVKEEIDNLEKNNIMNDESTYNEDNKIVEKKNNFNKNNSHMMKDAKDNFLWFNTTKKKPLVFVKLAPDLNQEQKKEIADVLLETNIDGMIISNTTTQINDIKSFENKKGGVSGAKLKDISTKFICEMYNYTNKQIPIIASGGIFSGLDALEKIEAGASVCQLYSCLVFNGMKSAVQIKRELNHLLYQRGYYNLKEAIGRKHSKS

Row | Structure (SMILES) | IC50 (PfDHODH; [4]) | IC50 (HsDHODH) | IC50 [1] | EC50 at 48 h [2] | EC50 at 48 h [3] | fold increase in the PfDHODH IC50 compared to 1 (PfDHODH) | IC50 (PfDHODH)
1 | N=C1Sc2cc(-c3cccc([N+](=O)[O-])c3)ccc2C2=NCCCN12 [Compound 21] | 3.68 ± 0.31 µM | > 4.5 µM | > 22.7 µM | > 10 µM | > 10 µM |  | 
2 | N=C1Sc2cc(-c3ccc4c(c3)OCCO4)ccc2C2=NCCCN12 [Compound 4] | 0.97 ± 0.08 µM | > 4.5 µM | > 22.7 µM | > 10 µM | > 10 µM |  | 
3 | O=[N+]([O-])c1ccccc1-c1ccc2c(c1)SN1CCCN=C21 [Compound 43] | 1.15 ± 0.06 µM | > 4.5 µM | > 22.7 µM | 9.44 µM | > 10 µM |  | 
4 | N=C1Sc2cc(-c3ccc4c(c3)OCO4)ccc2C2=NCCCN12 [Compound 3] | 1.18 ± 0.04 µM | > 4.5 µM | > 22.7 µM | > 10 µM | > 10 µM |  | 
5 | c1ccc2c(-c3ccc4c(c3)SN3CCCN=C43)cccc2c1 [Compound 31] | 1.1 ± 0.08 µM | > 4.5 µM | > 22.7 µM | > 10 µM | > 10 µM |  | 
6 | c1ccc(-c2ccc3c(c2)C2=NCCCN2S3)cc1 [Compound 36] | 1.51 ± 0.04 µM | > 4.5 µM | > 22.7 µM | 8.38 µM | > 10 µM |  | 
7 | N=C1Sc2cc(-c3ccc(C(F)(F)F)cc3)ccc2C2=NCCCN12 [Compound 15] | 2.31 ± 0.11 µM | > 4.5 µM | > 22.7 µM | > 10 µM | > 10 µM |  | 
8 | COC(=O)c1ccc(-c2ccc3c(c2)SC(=N)N2CCCN=C32)cc1 [Compound 13] | 1.22 ± 0.05 µM | > 4.5 µM | > 22.7 µM | > 10 µM | > 10 µM |  | 
9 | C#CCOCc1ccc(C(=O)c2ccc(-c3ccc4c(c3)SC(=N)N3CCCN=C43)cc2)cc1 [Compound 20] | 1.21 ± 0.06 µM | > 4.5 µM | > 22.7 µM | > 10 µM | > 10 µM |  | 
10 | O=[N+]([O-])c1ccc(-c2ccc3c(c2)SN2CCCN=C32)cc1 [Compound 39] | 1.3 ± 0.04 µM | > 4.5 µM | > 22.7 µM | > 10 µM | > 10 µM |  | 
11 | N=C1Sc2cc(-c3cc4ccccc4o3)ccc2C2=NCCCN12 [Compound 7] | 1.3 ± 0.05 µM | > 4.5 µM | > 22.7 µM | > 10 µM | > 10 µM |  | 
12 | N=C1Sc2cc(-c3ccccc3-c3ccccc3)ccc2C2=NCCCN12 [Compound 27] | 3.3 ± 0.1 µM | > 4.5 µM | > 22.7 µM | > 10 µM | > 10 µM |  | 
13 | CSc1ccc(-c2ccc3c(c2)SC(=N)N2CCCN=C32)cc1 [Compound 17] | 0.96 ± 0.07 µM | > 4.5 µM | > 22.7 µM | > 10 µM | > 10 µM |  | 
14 | N=C1Sc2cc(-c3ccc(OC(F)(F)F)cc3)ccc2C2=NCCCN12 [Compound 18] | 1.43 ± 0.06 µM | > 4.5 µM | > 22.7 µM | > 10 µM | > 10 µM |  | 
15 | CC(C)Oc1cccc(-c2ccc3c(c2)SC(=N)N2CCCN=C32)c1 [Compound 22] | 1.56 ± 0.05 µM | > 4.5 µM | > 22.7 µM | > 10 µM | > 10 µM |  | 
16 | N=C1Sc2cc(-c3ccc4ccccc4c3)ccc2C2=NCCCN12 [Compound 1] | 0.65 ± 0.05 µM | > 4.5 µM | > 22.7 µM | > 10 µM | > 10 µM |  | 
17 | N=C1Sc2cc(-c3ccc(C(=O)c4ccccc4)cc3)ccc2C2=NCCCN12 [Compound 19] | 1.07 ± 0.05 µM | > 4.5 µM | > 22.7 µM | > 10 µM | > 10 µM |  | 
18 | N#Cc1ccc(-c2ccc3c(c2)SC(=N)N2CCCN=C32)cc1 [Compound 14] | 3.89 ± 0.23 µM | > 4.5 µM | > 22.7 µM | > 10 µM | > 10 µM |  | 
19 | c1cc2c(cc1-c1ccc3c(c1)SN1CCCN=C31)OCO2 [Compound 32] | 1.29 ± 0.09 µM | > 4.5 µM | > 22.7 µM | > 10 µM | > 10 µM |  | 
20 | CC(C)(C)N=C1Sc2cc(-c3cc4ccccc4s3)ccc2C2=NCCCN12 [Compound 10] | 3.84 ± 0.09 µM | > 4.5 µM | > 22.7 µM | > 10 µM | > 10 µM | 6 fold | 
21 | N=C1Sc2cc(-c3ccc4cnccc4c3)ccc2C2=NCCCN12 [Compound 5] | 0.96 ± 0.09 µM | > 4.5 µM | > 22.7 µM | > 10 µM | > 10 µM |  | 
22 | CCc1cccc(-c2ccc3c(c2)SC(=N)N2CCCN=C32)c1 [Compound 25] | 1.52 ± 0.08 µM | > 4.5 µM | > 22.7 µM | > 10 µM | > 10 µM |  | 
23 | COc1ccccc1-c1ccc2c(c1)SN1CCCN=C21 [Compound 42] | 1.18 ± 0.05 µM | > 4.5 µM | > 22.7 µM | 9.77 µM | > 10 µM |  | 
24 | c1ccc(-c2ccc3c(c2)SN2CCCN=C32)cc1 [Compound 30] | 4.26 ± 0.12 µM | > 4.5 µM | > 22.7 µM | > 10 µM | > 10 µM |  | 
25 | N=C1Sc2cc(/C=C/c3ccccc3)ccc2C2=NCCCN12 [Compound 8] |  | > 4.5 µM | > 22.7 µM | > 10 µM | > 10 µM |  | 1.07 ± 0.05 µM
26 | N=C1Sc2cc(-c3ccc4c(C(=O)OC(F)(F)F)c[nH]c4c3)ccc2C2=NCCCN12 [Compound 6] | 0.7 ± 0.04 µM | > 4.5 µM | > 22.7 µM | > 10 µM | > 10 µM |  | 
27 | COC(=O)c1ccc(-c2ccc3c(c2)SN2CCCN=C32)cc1 [Compound 37] | 1.15 ± 0.07 µM | > 4.5 µM | > 22.7 µM | 8.43 µM | > 10 µM |  | 
